Measured values: ChEMBL document CHEMBL1777766, “Design, synthesis and in vitro antibacterial activity of 7-(4-alkoxyimino-3-aminomethylpiperidin-1-yl)fluoroquinolone derivatives” (Bioorg Med Chem Lett, 2011)
In brackets after ≈: the same amount, converted by molar mass.

Tests used:
Staphylococcus aureus [1] = test: Antibacterial activity against methicillin-sensitive Staphylococcus aureus 08-49; format: functional
Staphylococcus aureus [2] = test: Antibacterial activity against Staphylococcus aureus ATCC 13709; format: functional
Staphylococcus aureus [3] = test: Antibacterial activity against methicillin-resistant Staphylococcus aureus 08-52; format: functional
[4] = system: Staphylococcus epidermidis; test: Antibacterial activity against Staphylococcus epidermidis ATCC 12228; format: functional
[5] = system: Staphylococcus epidermidis; test: Antibacterial activity against methicillin-sensitive Staphylococcus epidermidis 08-17; format: functional
[6] = system: Staphylococcus epidermidis; test: Antibacterial activity against methicillin-resistant Staphylococcus epidermidis 08-18; format: functional
Streptococcus pneumoniae [7] = test: Antibacterial activity against Streptococcus pneumoniae ATCC 6301; format: functional
Streptococcus pneumoniae [8] = test: Antibacterial activity against penicillin-resistant Streptococcus pneumoniae 08-2; format: functional
Enterococcus faecalis [9] = test: Antibacterial activity against Enterococcus faecalis ATCC 51299; format: functional
Enterococcus faecalis [10] = test: Antibacterial activity against vancomycin-resistant Enterococcus faecalis EFL1004; format: functional
Streptococcus pyogenes = test: Antibacterial activity against Streptococcus pyogenes 556; format: functional
Escherichia coli [11] = test: Antibacterial activity against Escherichia coli ATCC 25922; format: functional
Escherichia coli [12] = test: Antibacterial activity against Extended spectrum beta-lactamase producing Escherichia coli 08-5; format: functional
Klebsiella pneumoniae = test: Antibacterial activity against Klebsiella pneumoniae ATCC 700603; format: functional
Pseudomonas aeruginosa = test: Antibacterial activity against Pseudomonas aeruginosa 17; format: functional
Shigella sonnei = test: Antibacterial activity against Shigella sonnei 51592; format: functional
Salmonella typhi = test: Antibacterial activity against Bacillus typhi 50035; format: functional, Salmonella enterica subsp. enterica serovar Typhi; conditions: Salmonella enterica
Enterobacter cloacae = test: Antibacterial activity against Enterobacter cloacae 45301; format: functional
[13] = system: Acinetobacter calcoaceticus; test: Antibacterial activity against Acinetobacter calcoaceticus 25001; format: functional
Klebsiella aerogenes = test: Antibacterial activity against Enterobacter aerogenes 45102; format: functional
Serratia marcescens = test: Antibacterial activity against Serratia marcescens 41002; format: functional
Morganella morganii = test: Antibacterial activity against Morganella morganii 49086; format: functional
Providencia rettgeri = test: Antibacterial activity against Proteus rettgeri 49006; format: functional
Proteus vulgaris = test: Antibacterial activity against Proteus vulgaris 56; format: functional
[14] = Cytotoxicity against african green monkey Vero cells after 24 hrs; format: cell-based; conditions: chlorocebus sabaeus

Compound	MIC (Staphylococcus aureus [1])	MIC (Staphylococcus aureus [2])	MIC (Staphylococcus aureus [3])	MIC [4]	MIC [5]	MIC [6]	MIC (Streptococcus pneumoniae [7])	MIC (Streptococcus pneumoniae [8])	MIC (Enterococcus faecalis [9])	MIC (Enterococcus faecalis [10])	MIC (Streptococcus pyogenes)	MIC (Escherichia coli [11])	MIC (Escherichia coli [12])	MIC (Klebsiella pneumoniae)	MIC (Pseudomonas aeruginosa)	MIC (Shigella sonnei)	MIC (Salmonella typhi)	MIC (Enterobacter cloacae)	MIC [13]	MIC (Klebsiella aerogenes)	also measured
CCO/N=C1\CCN(c2c(F)cc3c(=O)c(C(=O)O)cn(C4CC4)c3c2OC(F)F)CC1CN (racemic)	0.25 µg/mL (≈ 0.518 µM)	1 µg/mL (≈ 2.07 µM)	2 µg/mL (≈ 4.15 µM)	2 µg/mL (≈ 4.15 µM)	4 µg/mL (≈ 8.29 µM)	2 µg/mL (≈ 4.15 µM)	8 µg/mL (≈ 16.6 µM)	4 µg/mL (≈ 8.29 µM)	2 µg/mL (≈ 4.15 µM)	4 µg/mL (≈ 8.29 µM)	16 µg/mL (≈ 33.2 µM)	4 µg/mL (≈ 8.29 µM)	> 128 µg/mL	64 µg/mL (≈ 133 µM)	16 µg/mL (≈ 33.2 µM)	2 µg/mL (≈ 4.15 µM)	2 µg/mL (≈ 4.15 µM)	8 µg/mL (≈ 16.6 µM)	4 µg/mL (≈ 8.29 µM)	8 µg/mL (≈ 16.6 µM)	MIC (Serratia marcescens): 32 µg/mL (≈ 66.3 µM); MIC (Morganella morganii): 8 µg/mL (≈ 16.6 µM); MIC (Providencia rettgeri): 16 µg/mL (≈ 33.2 µM); MIC (Proteus vulgaris): 8 µg/mL (≈ 16.6 µM); CC50 at 24 h [14]: 203 µg/mL (≈ 421 µM)
CO/N=C1\CCN(c2c(F)cc3c(=O)c(C(=O)O)cn(C4CC4)c3c2OC)CC1CN (racemic)	0.25 µg/mL (≈ 0.578 µM)	0.5 µg/mL (≈ 1.16 µM)	4 µg/mL (≈ 9.25 µM)	1 µg/mL (≈ 2.31 µM)	4 µg/mL (≈ 9.25 µM)	4 µg/mL (≈ 9.25 µM)	4 µg/mL (≈ 9.25 µM)	4 µg/mL (≈ 9.25 µM)	4 µg/mL (≈ 9.25 µM)	8 µg/mL (≈ 18.5 µM)	8 µg/mL (≈ 18.5 µM)	4 µg/mL (≈ 9.25 µM)	> 128 µg/mL	64 µg/mL (≈ 148 µM)	8 µg/mL (≈ 18.5 µM)	4 µg/mL (≈ 9.25 µM)	4 µg/mL (≈ 9.25 µM)	> 128 µg/mL	4 µg/mL (≈ 9.25 µM)	4 µg/mL (≈ 9.25 µM)	MIC (Serratia marcescens): 8 µg/mL (≈ 18.5 µM); MIC (Morganella morganii): 4 µg/mL (≈ 9.25 µM); MIC (Providencia rettgeri): 8 µg/mL (≈ 18.5 µM); MIC (Proteus vulgaris): 8 µg/mL (≈ 18.5 µM); CC50 at 24 h [14]: 395 µg/mL (≈ 914 µM)
CCO/N=C1\CCN(c2c(F)cc3c(=O)c(C(=O)O)cn(CCF)c3c2F)CC1CN (racemic)	8 µg/mL (≈ 18.2 µM)	8 µg/mL (≈ 18.2 µM)	16 µg/mL (≈ 36.3 µM)	16 µg/mL (≈ 36.3 µM)	64 µg/mL (≈ 145 µM)	8 µg/mL (≈ 18.2 µM)	64 µg/mL (≈ 145 µM)	32 µg/mL (≈ 72.7 µM)	16 µg/mL (≈ 36.3 µM)	64 µg/mL (≈ 145 µM)	64 µg/mL (≈ 145 µM)	8 µg/mL (≈ 18.2 µM)	> 128 µg/mL	> 128 µg/mL	64 µg/mL (≈ 145 µM)	8 µg/mL (≈ 18.2 µM)	8 µg/mL (≈ 18.2 µM)	16 µg/mL (≈ 36.3 µM)	128 µg/mL (≈ 291 µM)	16 µg/mL (≈ 36.3 µM)	MIC (Serratia marcescens): 16 µg/mL (≈ 36.3 µM); MIC (Morganella morganii): 8 µg/mL (≈ 18.2 µM); MIC (Providencia rettgeri): 32 µg/mL (≈ 72.7 µM); MIC (Proteus vulgaris): 16 µg/mL (≈ 36.3 µM); CC50 at 24 h [14]: > 500 µg/mL
CO/N=C1\CCN(c2c(F)cc3c(=O)c(C(=O)O)cn(CCF)c3c2F)CC1CN (racemic)	2 µg/mL (≈ 4.69 µM)	4 µg/mL (≈ 9.38 µM)	8 µg/mL (≈ 18.8 µM)	8 µg/mL (≈ 18.8 µM)	32 µg/mL (≈ 75 µM)	8 µg/mL (≈ 18.8 µM)	32 µg/mL (≈ 75 µM)	16 µg/mL (≈ 37.5 µM)	8 µg/mL (≈ 18.8 µM)	16 µg/mL (≈ 37.5 µM)	32 µg/mL (≈ 75 µM)	8 µg/mL (≈ 18.8 µM)	> 128 µg/mL	128 µg/mL (≈ 300 µM)	32 µg/mL (≈ 75 µM)	32 µg/mL (≈ 75 µM)	8 µg/mL (≈ 18.8 µM)	> 128 µg/mL	128 µg/mL (≈ 300 µM)	32 µg/mL (≈ 75 µM)	MIC (Serratia marcescens): 16 µg/mL (≈ 37.5 µM); MIC (Morganella morganii): 16 µg/mL (≈ 37.5 µM); MIC (Providencia rettgeri): 16 µg/mL (≈ 37.5 µM); MIC (Proteus vulgaris): 16 µg/mL (≈ 37.5 µM)
